In PubChem BioAssay AID330 (DTP/NCI, 2004):
Several values for one entry are separate records, joined by “and”; a condition that tells them apart may be missing. Identical values can stand only once. Toxic doses and inconclusive results are not listed.

System: P388 leukemia ip, CD2F1 mice, survival T/C
Assay: NCI In Vivo Anticancer Drug Screen. Data for tumor model P388 Leukemia (intraperitoneal) in CD2F1 (CDF1) mice
Details: endpoint: median survival time, higher = longer survival
Outline: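 Mice carrying the transplanted tumor received test compound or vehicle. Survival was recorded in each group, and the value is the treated-group measurement divided by that of the vehicle-treated control group.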

[1] = dose: 50.0 mg/kg/injection, schedule: Q01DX009 (ip), vehicle: Klucel (hydroxypropylcellulose) (HPC)
[2] = dose: 100.0 mg/kg/injection, schedule: Q01DX009 (ip), vehicle: Klucel (hydroxypropylcellulose) (HPC)
[3] = dose: 200.0 mg/kg/injection, schedule: Q01DX009 (ip), vehicle: Klucel (hydroxypropylcellulose) (HPC)
[4] = dose: 60.0 mg/kg/injection, schedule: Q01DX005 (ip), vehicle: saline
[5] = dose: 120.0 mg/kg/injection, schedule: Q01DX005 (ip), vehicle: saline
[6] = dose: 240.0 mg/kg/injection, schedule: Q01DX005 (ip), vehicle: saline
[7] = dose: 50.0 mg/kg/injection, schedule: Q01DX009 (ip), vehicle: saline
[8] = dose: 100.0 mg/kg/injection, schedule: Q01DX009 (ip), vehicle: saline
[9] = dose: 50.0 mg/kg/injection, schedule: Q01DX005 (ip), vehicle: Klucel (hydroxypropylcellulose) (HPC)
[10] = dose: 100.0 mg/kg/injection, schedule: Q01DX005 (ip), vehicle: Klucel (hydroxypropylcellulose) (HPC)
[11] = dose: 200.0 mg/kg/injection, schedule: Q01DX005 (ip), vehicle: Klucel (hydroxypropylcellulose) (HPC)
[12] = dose: 200.0 mg/kg/injection, schedule: Q01DX009 (ip), vehicle: saline
[13] = dose: 50.0 mg/kg/injection, schedule: Q01DX009 (ip), vehicle: saline with Tween-80
[14] = dose: 100.0 mg/kg/injection, schedule: Q01DX009 (ip), vehicle: saline with Tween-80
[15] = dose: 200.0 mg/kg/injection, schedule: Q01DX009 (ip), vehicle: saline with Tween-80
[16] = dose: 60.0 mg/kg/injection, schedule: Q01DX005 (ip), vehicle: saline with Tween-80
[17] = dose: 120.0 mg/kg/injection, schedule: Q01DX005 (ip), vehicle: saline with Tween-80
[18] = dose: 240.0 mg/kg/injection, schedule: Q01DX005 (ip), vehicle: saline with Tween-80

## CCCCCCCCCCCC(=O)Nc1ncc([N+](=O)[O-])s1
[1]
  T/C: 101 % of control
[2]
  T/C: 102 % of control
[3]
  T/C: 106 % of control

## C/C(=N\NS(=O)(=O)c1ccc(C)cc1)c1cccs1
[1]
  T/C: 100 % of control
[2]
  T/C: 91 % of control
[3]
  T/C: 92 % of control

## COCc1cn[nH]n1
[4]
  T/C: 100 % of control
[5]
  T/C: 99 % of control
[6]
  T/C: 104 % of control

## CN(C)P1(N(C)C)=NP(N(C)C)(N(C)C)=NP(N(C)C)(N(C)C)=N1
dose: 12.5 mg/kg/injection, schedule: Q01DX009 (ip), vehicle: saline
  T/C: 99 % of control
dose: 25.0 mg/kg/injection, schedule: Q01DX009 (ip), vehicle: saline
  T/C: 89 % of control
dose: 25.0 mg/kg/injection, schedule: Q04DX003 (ip), vehicle: saline
  T/C: 99 % of control
[7]
  T/C: 90 % of control
dose: 50.0 mg/kg/injection, schedule: Q04DX003 (ip), vehicle: saline
  T/C: 100 % of control
[8]
  T/C: 96 % of control
dose: 100.0 mg/kg/injection, schedule: Q04DX003 (ip), vehicle: saline
  T/C: 100 % of control

## COC(=O)/C=C(\C=C/C(=O)O)C(=O)O
[9]
  T/C: 104 % of control
[10]
  T/C: 100 % of control
[11]
  T/C: 95 % of control

## Cc1nc2c(n1C)C(=O)c1nc[nH]c(=O)c1C2=O
dose: 1.75 mg/kg/injection, schedule: Q01DX005 (ip), vehicle: water
  T/C: 102 % of control
dose: 3.5 mg/kg/injection, schedule: Q01DX005 (ip), vehicle: water
  T/C: 92 % of control
dose: 7.0 mg/kg/injection, schedule: Q01DX005 (ip), vehicle: water
  T/C: 96 % of control
dose: 14.0 mg/kg/injection, schedule: Q01DX005 (ip), vehicle: water
  T/C: 96 % of control

## NCCc1ccc(N)cc1
[7]
  T/C: 100 % of control and 105 % of control
[8]
  T/C: 100 % of control and 96 % of control
[12]
  T/C: 86 % of control

## CC1(C)CSC(=S)SC1
dose: 25.0 mg/kg/injection, schedule: Q04DX002 (ip), vehicle: saline
  T/C: 100 % of control
dose: 50.0 mg/kg/injection, schedule: Q04DX002 (ip), vehicle: saline
  T/C: 97 % of control
dose: 100.0 mg/kg/injection, schedule: Q04DX002 (ip), vehicle: saline with Tween-80
  T/C: 110 % of control
dose: 100.0 mg/kg/injection, schedule: Q04DX002 (ip), vehicle: saline
  T/C: 103 % of control

## C[P+](CCOC(=O)NC(Cc1ccccc1)C(=O)O)(c1ccccc1)c1ccccc1 (stereo unspecified)
[13]
  T/C: 94 % of control
[14]
  T/C: 103 % of control

## COC(=O)C1(Br)CCC1(Br)C(=O)OC (stereo unspecified)
[1]
  T/C: 100 % of control
[2]
  T/C: 109 % of control
[3]
  T/C: 103 % of control
dose: 400.0 mg/kg/injection, schedule: Q01DX009 (ip), vehicle: Klucel (hydroxypropylcellulose) (HPC)
  T/C: 94 % of control

## CC(=O)OC1CCCCC1C (stereo unspecified)
[13]
  T/C: 113 % of control
dose: 50.0 mg/kg/injection, schedule: Q04DX003 (ip), vehicle: saline with Tween-80
  T/C: 105 % of control
[14]
  T/C: 118 % of control
dose: 100.0 mg/kg/injection, schedule: Q04DX003 (ip), vehicle: saline with Tween-80
  T/C: 110 % of control
[15]
  T/C: 109 % of control
dose: 200.0 mg/kg/injection, schedule: Q04DX003 (ip), vehicle: saline with Tween-80
  T/C: 110 % of control

## CC1(C)C(=O)c2cc(Cl)ccc2C1(C)C
[9]
  T/C: 103 % of control
[10]
  T/C: 102 % of control
[11]
  T/C: 97 % of control

## CC1(C)OC2OC(COC(=O)c3ccccc3)C(N3OC4C=CC3CC4)C2O1 (stereo unspecified)
dose: 100.0 mg/kg/injection, schedule: Q04DX002 (ip), vehicle: Klucel (hydroxypropylcellulose) (HPC)
  T/C: 103 % of control
dose: 200.0 mg/kg/injection, schedule: Q04DX002 (ip), vehicle: Klucel (hydroxypropylcellulose) (HPC)
  T/C: 103 % of control
dose: 400.0 mg/kg/injection, schedule: Q04DX002 (ip), vehicle: Klucel (hydroxypropylcellulose) (HPC)
  T/C: 102 % of control

## CCCCCC(CN1CCCCC1)C(=O)/C=C/c1ccccc1 (stereo unspecified)
dose: 25.0 mg/kg/injection, schedule: Q01DX009 (ip), vehicle: saline with Tween-80
  T/C: 101 % of control
[13]
  T/C: 107 % of control
[14]
  T/C: 117 % of control

## CCCCC(CC)COC1CCS(=O)(=O)C1 (stereo unspecified)
[13]
  T/C: 100 % of control
[14]
  T/C: 101 % of control
[15]
  T/C: 95 % of control

## CC(=O)NC(Cc1cnc[nH]1)C(C)=O (stereo unspecified)
[7]
  T/C: 100 % of control
[8]
  T/C: 98 % of control
[12]
  T/C: 104 % of control

## O=c1c(O)cc2c(O)oc3c(=O)c(O)c(O)c4c(O)oc1c2c43
dose: 25.0 mg/kg/injection, schedule: Q01DX009 (ip), vehicle: suspension in saline
  T/C: 114 % of control and 97 % of control
dose: 50.0 mg/kg/injection, schedule: Q01DX009 (ip), vehicle: suspension in saline
  T/C: 111 % of control and 97 % of control
dose: 100.0 mg/kg/injection, schedule: Q01DX009 (ip), vehicle: suspension in saline
  T/C: 112 % of control and 98 % of control
dose: 200.0 mg/kg/injection, schedule: Q01DX009 (ip), vehicle: suspension in saline
  T/C: 103 % of control and 114 % of control

## CC1(C)OC2CCC3OC(=O)C(C)(Cl)C3C2O1 (stereo unspecified)
dose: 12.5 mg/kg/injection, schedule: Q01DX009 (ip), vehicle: other
  T/C: 116 % of control
dose: 25.0 mg/kg/injection, schedule: Q01DX009 (ip), vehicle: other
  T/C: 107 % of control
dose: 50.0 mg/kg/injection, schedule: Q01DX009 (ip), vehicle: other
  T/C: 99 % of control
dose: 100.0 mg/kg/injection, schedule: Q01DX009 (ip), vehicle: other
  T/C: 116 % of control

## N#CCCN(N)S(=O)(=O)c1ccc(Br)cc1
[9]
  T/C: 102 % of control
[10]
  T/C: 96 % of control
[11]
  T/C: 115 % of control

## C[CH2][Pb]([CH2]C)([CH2]C)[N]1C(=O)c2ccccc2C1=O
dose: 1.56 mg/kg/injection, schedule: Q01DX009 (ip), vehicle: Klucel (hydroxypropylcellulose) (HPC)
  T/C: 110 % of control
dose: 3.12 mg/kg/injection, schedule: Q01DX009 (ip), vehicle: Klucel (hydroxypropylcellulose) (HPC)
  T/C: 118 % of control

## O=C(O)CNC(CO)(CO)CO
[4]
  T/C: 102 % of control
[5]
  T/C: 100 % of control
[6]
  T/C: 97 % of control

## O=C(/C=C/c1ccc(O)cc1)NCCc1c[nH]c2ccc(O)cc12
dose: 25.0 mg/kg/injection, schedule: Q01DX005 (ip), vehicle: Klucel + Tween-80
  T/C: 106 % of control
dose: 50.0 mg/kg/injection, schedule: Q01DX005 (ip), vehicle: Klucel + Tween-80
  T/C: 97 % of control
dose: 100.0 mg/kg/injection, schedule: Q01DX005 (ip), vehicle: Klucel + Tween-80
  T/C: 92 % of control
dose: 200.0 mg/kg/injection, schedule: Q01DX005 (ip), vehicle: Klucel + Tween-80
  T/C: 95 % of control

## C=CCCNC(=S)S
[4]
  T/C: 109 % of control
[5]
  T/C: 107 % of control
[6]
  T/C: 108 % of control

## Cc1nsc2[nH]c(=O)n(Nc3ccc(O)cc3)c(=O)c12
dose: 100.0 mg/kg/injection, schedule: Q01DX005 (ip), vehicle: saline with Tween-80
  T/C: 174 % of control and 178 % of control
dose: 200.0 mg/kg/injection, schedule: Q01DX005 (ip), vehicle: saline with Tween-80
  T/C: 180 % of control

## CC(C)(C(N=Cc1ccccc1)c1ccccc1)[N+](=O)[O-] (stereo unspecified)
[16]
  T/C: 100 % of control
[17]
  T/C: 98 % of control
[18]
  T/C: 99 % of control

## COc1ccc(S(N)(=O)=O)cc1C(=O)N1CCN2CCCC2C1 (stereo unspecified)
[4]
  T/C: 100 % of control
[5]
  T/C: 100 % of control
[6]
  T/C: 94 % of control

## O=C1NN2CCN=C2c2ccccc21
[16]
  T/C: 100 % of control
[17]
  T/C: 104 % of control
[18]
  T/C: 103 % of control

## Oc1ccc([C@H]2Oc3c(c(O)cc4c3C3c5c(O)cc(O)cc5OC(c5ccc(O)cc5)(O4)[C@H]3O)CC2O)cc1 (stereo partly specified)
dose: 1.0 mg/kg/injection, schedule: Q01DX005 (ip), vehicle: Klucel (hydroxypropylcellulose) (HPC)
  T/C: 103 % of control
dose: 2.0 mg/kg/injection, schedule: Q01DX005 (ip), vehicle: Klucel (hydroxypropylcellulose) (HPC)
  T/C: 103 % of control
dose: 4.0 mg/kg/injection, schedule: Q01DX005 (ip), vehicle: Klucel (hydroxypropylcellulose) (HPC)
  T/C: 110 % of control
dose: 8.0 mg/kg/injection, schedule: Q01DX005 (ip), vehicle: Klucel (hydroxypropylcellulose) (HPC)
  T/C: 103 % of control

## COc1ccccc1C(=O)CCN(C)C
dose: 15.0 mg/kg/injection, schedule: Q01DX005 (ip), vehicle: saline
  T/C: 98 % of control
dose: 30.0 mg/kg/injection, schedule: Q01DX005 (ip), vehicle: saline
  T/C: 112 % of control
[4]
  T/C: 114 % of control and 97 % of control

## C[Si]1(C)N[Si](C)(C)N[Si](C)(C)N1
[13]
  T/C: 103 % of control
[14]
  T/C: 95 % of control
[15]
  T/C: 108 % of control
